Results taken from patent US20230100838A1 (Revolution Medicines, Inc., priority 2019, published 2023).

Tests used:
[1] = target: T1, GDP-loaded K-Ras (1-169) G12D, C51S, C80L, C118S (Homo sapiens, UniProt P01116, C118S/C51S/C80L/G12D); assay: K-Ras G12D(GDP) cross-linking assay (conjugate formation, TOF mass spectrometry); format: binding; parameters: key: 0: No observed x-linking; +: 0 < x ≤ 20; ++: 20 < x ≤ 40; +++: 40 < x ≤ 100; conditions: Table 5; percent covalently modified K-Ras by MS; room temperature; typical compound conc. 2, 10, 25 μM, endpoints 1 and 24 h
T1 construct: GDP-loaded K-Ras (1-169) G12D, C51S, C80L, C118S
Procedure: (§1) Protocol: K-Ras G12D(GDP) Cross-Linking Assay
(§2) Note: while the following protocol outlines the procedure for K-Ras G12D(GDP), a person of skill in the art may substitute other Ras proteins, and may also substitute a non-hydrolyzable GTP analog for GDP to study GTP bound Ras protein.
(§3) GDP-loaded K-Ras (1-169) G12D, C51S, C80L, C118S and GDP-loaded K-Ras (1-169) C51S, C80L, C118S were adjusted to 50 μM in K-Ras assay buffer (12.5 mM HEPES, 75 mM NaCl and 1 mM MgCl2 at pH 7.4). A 5 μL aliquot of each protein solution was added to each well of a 96-well microplate containing 40 μL of assay buffer. Initial compound stocks were prepared in DMSO at 100 times their final assay concentration. Compounds were then diluted 10-fold into K-Ras assay buffer to 10 times their final concentration. A 5 μL aliquot of each diluted compound solution was added to each protein solution in the 96-well microplate to initiate the reaction, which then proceeded at room temperature. Typical final compound concentrations were 2, 10, and 25 μM. At each time point, the reactions were analyzed immediately or quenched with 5 μL of a 5% formic acid solution and kept at 4° C. until analysis. Typical assay endpoints were 1 and 24 h.
(§4) Data collection took place on an Agilent 6230 TOF Mass Spectrometer. Complete reactions were injected onto a C4 reverse-phase column to separate protein from buffer components prior to entering the mass spectrometer. The proteins were eluted from the column by increasing acetonitrile fraction in the mobile phase and fed directly into the mass analyzer. Initial analysis of raw data took place in Agilent MassHunter BioConfirm software and consisted of deconvolution of multiple protein charge states with the maximum entropy algorithm, with a mass step of 1 Da. The heights of all deconvoluted protein masses were exported for further data analysis. The percent modification of each protein was then determined by calculating the peak height of the covalently modified K-Ras species as a percentage of the sum total of K-Ras protein peak height.

[2] = target: T2, GDP-loaded K-Ras (1-169) C51S, C80L, C118S (Homo sapiens, UniProt P01116, C118S/C51S/C80L); assay: K-Ras WT (GDP) cross-linking assay (conjugate formation, TOF mass spectrometry); format: binding; parameters: key: 0: No observed x-linking; +: 0 < x ≤ 20; ++: 20 < x ≤ 40; +++: 40 < x ≤ 100; conditions: Table 5; percent covalently modified K-Ras by MS; room temperature; typical compound conc. 2, 10, 25 μM, endpoints 1 and 24 h
T2 construct: GDP-loaded K-Ras (1-169) C51S, C80L, C118S
Procedure: as §1, §2, §3, §4

| Compound | G12D x-linking (%) [1] | WT x-linking (%) [2] |
| --- | --- | --- |
| Cc1cccc2cccc(N3CCc4c(nc(OC[C@@H]5CCCN5C)nc4N4CC[C@@H](NC(=O)C5CN5)C4)C3)c12 (stereo partly drawn) [Example 129] | + (0 < x ≤ 20) | 0 |
| COCC1(N=C=N[C@H]2C[C@H](Nc3nc(OC[C@@H]4CCCN4C)nc4c3CCN(c3cccc5cccc(C)c35)C4)C2)CC1 [Example 152] | +++ (40 < x ≤ 100) | + (0 < x ≤ 20) |
| Cc1cccc2cccc(N3CCc4c(nc(OC[C@@H]5CCCN5C)nc4N4CCN(C(=O)[C@@H]5CN5Cc5ccccc5)[C@@H](CC#N)C4)C3)c12 (stereo partly drawn) [Example 97, 2-((S)-1-((S)-1-benzylaziridine-2-carbonyl)-4-(7-(8-methylnaphthalen-1-yl)-2-(((S)-1-methylpyrrolidin-2-yl)methoxy)-5,6,7,8-tetrahydropyrido[3,4-d]pyrimidin-4-yl)piperazin-2-yl)acetonitrile] | + (0 < x ≤ 20) | + (0 < x ≤ 20) |
| CO[C@@H]1CCCC[C@H]1N=C=NC1CCN(c2nc(OC[C@@H]3CCCN3C)nc3c2CCN(c2cccc4cccc(C)c24)C3)CC1 [Example 147] | + (0 < x ≤ 20) | + (0 < x ≤ 20) |
| CO[C@H]1CCCC[C@@H]1N=C=NC1CCN(c2nc(OC[C@@H]3CCCN3C)nc3c2CCN(c2cccc4cccc(C)c24)C3)CC1 [Example 145] | + (0 < x ≤ 20) | + (0 < x ≤ 20) |
| Cc1cccc2cccc(N3CCc4c(nc(OC[C@@H]5CCCN5C)nc4N4CCN(C(=O)[C@H]5CN5Cc5ccccc5)[C@@H](CC#N)C4)C3)c12 (stereo partly drawn) [Example 96, 2-((S)-1-((R)-1-benzylaziridine-2-carbonyl)-4-(7-(8-methylnaphthalen-1-yl)-2-(((S)-1-methylpyrrolidin-2-yl)methoxy)-5,6,7,8-tetrahydropyrido[3,4-d]pyrimidin-4-yl)piperazin-2-yl)acetonitrile] | + (0 < x ≤ 20) | + (0 < x ≤ 20) |
| Cc1cccc2cccc(N3CCc4c(nc(OC[C@@H]5CCCN5C)nc4N4CCN(C(=O)[C@H]5CN5S(C)(=O)=O)[C@@H](CC#N)C4)C3)c12 (stereo partly drawn) [Example 131] | + (0 < x ≤ 20) | + (0 < x ≤ 20) |
| Cc1cccc2cccc(N3CCc4c(nc(OC[C@@H]5CCCN5C)nc4N4CCN(C(=O)[C@@H]5CN5C)[C@@H](CC#N)C4)C3)c12 (stereo partly drawn) [Example 107, 2-((S)-1-((S)-1-methylaziridine-2-carbonyl)-4-(7-(8-methylnaphthalen-1-yl)-2-(((S)-1-methylpyrrolidin-2-yl)methoxy)-5,6,7,8-tetrahydropyrido[3,4-d]pyrimidin-4-yl)piperazin-2-yl)acetonitrile] | + (0 < x ≤ 20) | 0 |
| CC(=O)N1C[C@H]1C(=O)N1CCN(c2nc(OC[C@@H]3CCCN3C)nc3c2CCN(c2cccc4cccc(C)c24)C3)C[C@@H]1CC#N [Example 99, 2-((S)-1-((S)-1-acetylaziridine-2-carbonyl)-4-(7-(8-methylnaphthaien-1-yl)-2-(((S)-1-methylpyrrolidin-2-yl)methoxy)-5,6,7,8-tetrahydropyrido[3,4-d]pyrimidin-4-yl)piperazin-2-yl)acetonitrile] | + (0 < x ≤ 20) | + (0 < x ≤ 20) |
| Cc1ccnc(C(C)C)c1-n1c(=O)nc(N2[C@H](C)CN(C(=O)[C@H]3CN3)C[C@@H]2C)c2cc(F)c(-c3c(O)cccc3F)nc21 [Example 135] | 0 | 0 |
| O=C([C@@H]1CN1)N1CCN2c3ncnc4cc(-c5c(O)cccc5F)c(Cl)c(c34)OCC[C@@H]2C1 [Example 134] | + (0 < x ≤ 20) | + (0 < x ≤ 20) |
| O=C([C@H]1CN1)N1CCN2c3ncnc4cc(-c5c(O)cccc5F)c(Cl)c(c34)OC[C@@H]2C1 [Example 120, ((R)-aziridin-2-yl)((8aS)-6-chloro-5-(2-fluoro-6-hydroxyphenyl)-8a,9,11,12-tetrahydropyrazino[2′,1′:3,4][1,4]oxazepino[5,6,7-de]quinazolin-10(8H)-yl)methanone] | 0 | 0 |
| COc1ccccc1CN=C=N[C@H]1CCN(c2nc(OC[C@@H]3CCCN3C)nc3c2CCN(c2cccc4cccc(C)c24)C3)C[C@@H]1CC#N [Example 103, 2-((3S,4S)-4-((((2-methoxybenzyl)imino)methylene)amino)-1-(7-(8-methylnaphthalen-1-yl)-2-(((S)-1-methylpyrrolidin-2-yl)methoxy)-5,6,7,8-tetrahydropyrido[3,4-d]pyrimidin-4-yl)piperidin-3-yl)acetonitrile] | + (0 < x ≤ 20) | + (0 < x ≤ 20) |
| CO[C@H]1CCC[C@H]1N=C=NC1CCN(c2nc(OC[C@@H]3CCCN3C)nc3c2CCN(c2cccc4cccc(C)c24)C3)CC1 (single isomer, unassigned) [Example 150] | + (0 < x ≤ 20) | + (0 < x ≤ 20) |
| Cc1ccnc(C(C)C)c1-n1c(=O)nc(N2[C@H](C)CN(C(=O)[C@@H]3CN3)C[C@@H]2C)c2cc(F)c(-c3c(O)cccc3F)nc21 [Example 140] | 0 | 0 |
| COc1ccccc1CN=C=N[C@@H]1CCN(c2nc(OC[C@@H]3CCCN3C)nc3c2CCN(c2cccc4cccc(C)c24)C3)C[C@@H]1CC#N [Example 102, 2-((3S,4R)-4-((((2-methoxybenzyl)imino)methylene)amino)-1-(7-(8-methylnaphthalen-1-yl)-2-(((S)-1-methylpyrrolidin-2-yl)methoxy)-5,6,7,8-tetrahydropyrido[3,4-d]pyrimidin-4-yl)piperidin-3-yl)acetonitrile] | + (0 < x ≤ 20) | + (0 < x ≤ 20) |
| CC(=O)N1C[C@@H]1CN1CCN(c2nc(OC[C@@H]3CCCN3C)nc3c2CCN(c2cccc4cccc(C)c24)C3)C[C@@H]1CC#N [Example 119, 2-((S)-1-(((S)-1-acetylaziridin-2-yl)methyl)-4-(7-(8-methylnaphthalen-1-yl)-2-(((S)-1-methylpyrrolidin-2-yl)methoxy)-5,6,7,8-tetrahydropyrido[3,4-d]pyrimidin-4-yl)piperazin-2-yl)acetonitrile] | + (0 < x ≤ 20) | + (0 < x ≤ 20) |
| COCCN=C=N[C@H]1CCN(c2nc(OC[C@@H]3CCCN3C)nc3c2CCN(c2cccc4cccc(C)c24)C3)C[C@@H]1CC#N [Example 76, 2-((3S,4S)-4-((((2-methoxyethyl)imino)methylene)amino)-1-(7-(8-methylnaphthalen-1-yl)-2-(((S)-1-methylpyrrolidin-2-yl)methoxy)-5,6,7,8-tetrahydropyrido[3,4-d]pyrimidin-4-yl)piperidin-3-yl)acetonitrile] | +++ (40 < x ≤ 100) | ++ (20 < x ≤ 100) |
| COC(=O)[C@H]1CN1C(=O)N1CCN(c2nc(OC[C@@H]3CCCN3C)nc3c2CCN(c2cccc4cccc(C)c24)C3)C[C@@H]1CC#N [Example 108, methyl (R)-1-((S)-2-(cyanomethyl)-4-(7-(8-methylnaphthalen-1-yl)-2-(((S)-1-methylpyrrolidin-2-yl)methoxy)-5,6,7,8-tetrahydropyrido[3,4-d]pyrimidin-4-yl)piperazine-1-carbonyl)aziridine-2-carboxylate] | + (0 < x ≤ 20) | + (0 < x ≤ 20) |
| CO[C@@H]1CCC[C@@H]1N=C=NC1CCN(c2nc(OC[C@@H]3CCCN3C)nc3c2CCN(c2cccc4cccc(C)c24)C3)CC1 (single isomer, unassigned) [Example 149] | ++ (20 < x ≤ 40) | + (0 < x ≤ 20) |
| Cc1ccnc(C(C)C)c1-n1c(=O)nc(N2C[C@H](C)N(C(=O)[C@@H]3CN3)C[C@H]2C)c2cc(F)c(-c3c(O)cccc3F)nc21 [Example 144] | 0 | 0 |
